Values joined by “and” are separate entries in the source; they are usually repeats but may differ in a detail not shown here. Equal values may be shown once. Read-outs that look alike come from different tables or passages of the source.
Columns and labels:
[1] = system: rat prostate; assay: Systemic antiandrogenic activity, orchidectomized immature male rats with DHT implant: prostate weight; type: in vivo; conditions: for inhibition in vivo at 0.5 mg: Rattus norvegicus, sc, 168 h, read-out: IN VIVO Rat s.c. (+DHT) Prostate % inhibition, s.c., 0.5 mg/animal once daily for 7 days, +DHT
Description: (§1) Immature male rats (Crl:CD(SD)Br) 22 to 24-day old were obtained from Charles-River, Inc. (St-Constant, Quebec, Canada) and housed up to 5 per cage in plastic bins in a temperature (23±1° C.)- and light (12 h light/day, lights on at 7 h15)-controlled environment. The rats were fed rodent chow and tap water ad libitum. The day following their arrival, the animals were orchidectomized (CX) under Isoflurane anesthesia via scrotal route and randomly assigned to groups of 5 animals.
(§2) Compounds were solubilized (when possible) in dimethylsulfoxide (DMSO, 10% final concentration) and administered as suspension in 0.4% methylcellulose. […] One group of animals received the antiandrogen Flutamide as reference. The animals were killed by cervical dislocation under isoflurane anesthesia on the 8th morning following castration. The ventral prostate and seminal vesicles were rapidly dissected and weighed.
(§3) W is the weight of the prostate or the seminal vesicle.

[2] = system: rat seminal vesicle; assay: Systemic antiandrogenic activity, orchidectomized immature male rats with DHT implant: seminal vesicle weight; type: in vivo; conditions: for inhibition in vivo at 0.5 mg: Rattus norvegicus, sc, 168 h, read-out: IN VIVO Rat s.c. (+DHT) SV % inhibition, s.c., 0.5 mg/animal once daily for 7 days, +DHT; for IN VIVO Rat s.c. (+DHT) SV % inhibition: 0.5 mg/animal once daily for 7 days
Description: as §1, §2, §3

[3] = molecular target: T1, Human Androgen Receptor (Homo sapiens, UniProt P10275); assay: Androgen receptor binding assay (hydroxylapatite, [3H]R1881, cytosol of transfected HEK-293 cells); conditions: % RBA=100×IC50 R1881/IC50 compound, transfected cells
T1 sequence (P10275 1-920): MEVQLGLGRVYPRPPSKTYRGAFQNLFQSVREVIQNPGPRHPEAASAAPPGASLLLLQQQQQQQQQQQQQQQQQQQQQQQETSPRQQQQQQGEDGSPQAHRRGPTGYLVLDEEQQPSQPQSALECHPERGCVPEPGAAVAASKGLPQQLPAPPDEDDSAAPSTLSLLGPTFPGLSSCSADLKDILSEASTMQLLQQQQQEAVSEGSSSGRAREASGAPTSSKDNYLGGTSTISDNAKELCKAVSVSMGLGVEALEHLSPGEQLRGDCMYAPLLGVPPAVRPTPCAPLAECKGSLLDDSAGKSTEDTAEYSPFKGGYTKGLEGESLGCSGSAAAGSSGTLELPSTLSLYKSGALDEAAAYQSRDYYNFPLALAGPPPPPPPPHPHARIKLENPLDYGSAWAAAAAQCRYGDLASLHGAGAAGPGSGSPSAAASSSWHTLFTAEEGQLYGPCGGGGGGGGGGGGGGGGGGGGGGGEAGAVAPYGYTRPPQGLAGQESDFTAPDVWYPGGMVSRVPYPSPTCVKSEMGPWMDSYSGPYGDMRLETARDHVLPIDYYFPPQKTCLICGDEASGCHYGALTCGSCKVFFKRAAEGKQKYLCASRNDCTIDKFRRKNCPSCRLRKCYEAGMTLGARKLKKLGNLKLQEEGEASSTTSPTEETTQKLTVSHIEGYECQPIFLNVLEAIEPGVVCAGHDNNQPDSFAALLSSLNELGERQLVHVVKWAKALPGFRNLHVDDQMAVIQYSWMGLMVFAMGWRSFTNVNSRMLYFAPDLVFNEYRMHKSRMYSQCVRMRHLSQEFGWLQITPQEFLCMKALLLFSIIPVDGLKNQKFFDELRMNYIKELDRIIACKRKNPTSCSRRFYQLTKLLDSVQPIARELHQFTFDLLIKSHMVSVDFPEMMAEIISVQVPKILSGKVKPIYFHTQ

[4] = system: Shionogi mouse mammary carcinoma cells; assay: Androgenic/antiandrogenic activity on DHT-stimulated Shionogi cell growth; type: cell-based
[5] = Mus musculus, read-out: Shionogi Antiandrogenic activity IC50 (nM), inhibition of DHT-stimulated Shionogi cell number
[6] = read-out: Shionogi Antiandrogenic activity IC50, inhibition of DHT-stimulated Shionogi cell number

Row | Structure (SMILES) | inhibition in vivo at 0.5 mg [1] [%] | inhibition in vivo at 0.5 mg [2] [%] | Androgen Receptor Binding (%) Human RBA R1881 = 100 [3] | IC50 [4, 5] [nM] | IN VIVO Rat s.c. (+DHT) Prostate % inhibition ([1]; s.c., 0.5 mg/animal once daily for 7 days, +DHT) [%] | IN VIVO Rat s.c. (+DHT) SV % inhibition ([2]; +DHT) [%] | IC50 [4, 6] [nM] | IN VIVO Rat (+DHT) Prostate % inhibition (1 mg, po) ([1]; 1 mg, po, +DHT) [%] | IN VIVO Rat (+DHT) SV % inhibition (1 mg, po) ([2]; 1 mg, po, +DHT) [%] | IN VIVO Rat (+DHT) Prostate % inhibition (per os) ([1]; +DHT) [%] | IN VIVO Rat (+DHT) SV % inhibition (per os) ([2]; +DHT) [%]
1 | CCC(CC)N(C)C(CC)c1cccc(OCC[C@]23CCC4C5CCC(=O)C=C5CCC4C2CC[C@]3(C)O)c1 (stereo partly shown) [EM-6902] | 2 | 0 | 107% | 0.06 |  |  |  |  |  |  | 
2 | CCCC(NC(CC)CC)c1cccc(OCC[C@]23CCC4C(CCC5=CC(=O)CC[C@@]54C)C2CC[C@@H]3O)c1 (stereo partly shown) [EM-6841] |  |  | 139% |  | 21 | 5 | 0.1 |  |  |  | 
3 | CCCC(NC(CC)CC)c1cccc(OCC[C@]23CCC4C(CCC5=CC(=O)CC[C@@]54C)C2CC[C@@H]3O)c1 (stereo partly shown) [EM-6928] |  |  | 146% and 181% |  |  | 0 | 0.04 |  |  |  | 
4 | CCC(NC(C)C)c1cccc(OCC[C@]23CCC4C(CCC5=CC(=O)CC[C@@]54C)C2CC[C@]3(C)O)c1 (stereo partly shown) [EM-6918] | 29 | 0 | 120% |  |  |  |  |  |  |  | 
5 | CCC(NC1CCCCC1)c1cccc(OCC[C@]23CCC4C(CCC5=CC(=O)CC[C@@]54C)C2CC[C@@H]3O)c1 (stereo partly shown) [EM-6798] | 20 | 29 | 118% |  |  |  |  | 17 | 19 |  | 
6 | CCC(CC)N(C)C(CC)c1cccc(OCC[C@]23CCC4C5CCC(=O)C=C5C[C@@H](C)C4C2CC[C@]3(C)O)c1 (mixture of isomers) [EM-7127] | 20 | 0 | 128% | 0.91 |  |  |  |  |  |  | 
7 | CCC(CC)NC(CN(C)C)c1cccc(OCC[C@]23CCC4C(CCC5CC(=O)CC[C@@]54C)C2CC[C@@H]3O)c1 (stereo partly shown) [EM-7118] | 31 | 0 | 176% | 7.2 |  |  |  |  |  |  | 
8 | CCC(NC1CCCC1)c1cc(F)cc(OCC[C@]23CCC4C(CCC5CC(=O)CC[C@@]54C)C2CC[C@@H]3O)c1 (stereo partly shown) [EM-6761] | 33 | 0 | 141% | 1.2 |  |  |  |  |  |  | 
9 | CCCC(NC1CCCC1)c1cccc(OCC[C@]23CCC4C5CCC(=O)C=C5C[C@H](C)C4C2CC[C@]3(C)O)c1 (stereo partly shown) [EM-7218] | 35 | 0 | 112% |  |  |  |  |  |  |  | 
10 | CCCC(NC(C)C)c1cccc(OCC[C@]23CCC4C(CCC5=CC(=O)CC[C@@]54C)C2CC[C@]3(C)O)c1 (mixture of isomers) [EM-7133] | 32 | 40 | 55% | 1.1 |  |  |  |  |  |  | 
11 | CCCC(NC(CC)CC)c1cccc(OCC[C@]23CCC4C5CCC(=O)C=C5C[C@@H](C)C4C2CC[C@]3(C)O)c1 (mixture of isomers) [EM-7129] | 37 | 10 | 197% | 0.96 |  |  |  |  |  |  | 
12 | CC(NC1CCCCC1)c1cccc(OCC[C@]23CCC4C(CCC5C/C(=N\O)CC[C@@]54C)C2CC[C@@H]3O)c1 (stereo partly shown) [EM-6418] | 21 | 13 | 31% | 5 |  |  |  |  |  | 16 | 32
13 | CCCC(NC(CC)CC)c1cccc(OCC[C@]23CCC4C5CCC(=O)C=C5C(C)(C)CC4C2CCC3=O)c1 (stereo partly shown) [EM-6993] |  | 0 | 35% | 16.4 |  |  |  |  |  |  | 
14 | CCC(NC1CCCC1)c1cccc(OCC[C@]23CCC4C5CCC(=O)C=C5C[C@@H](C)C4C2CC[C@]3(C)O)c1 (mixture of isomers) [EM-6733] | 34 |  | 62% | 1.3 |  |  |  |  |  | 34 | 6
15 | C[C@@H]1CC2=CC(=O)CCC2C2CC[C@@]3(CCOc4cccc(C[S+]([O-])c5ccccc5)c4)C(CC[C@]3(C)O)C21 (mixture of isomers) [EM-7230] | 0 | 0 | 39% |  |  |  |  |  |  |  | 
16 | CCC(CC)NC(CC)c1cc(OCC[C@]23CCC4C(CCC5=CC(=O)CC[C@@]54C)C2CC[C@@H]3O)ccn1 (stereo partly shown) [EM-7136] | 27 | 35 | 92.7% and 93% | 0.2 |  |  |  |  |  |  | 
17 | CCCC(NC(CC)CC)c1cccc(OCC[C@]23CCC4C5CCC(=O)C=C5C(C)(C)CC4C2CC[C@]3(C)O)c1 (mixture of isomers) [EM-7075] | 0 | 0 | 57% | 9.7 |  |  |  |  |  |  | 
18 | CCCC(NC(CC)CC)c1cccc(OCC[C@]23CCC4C5CCC(=O)C=C5C[C@@H](C)C4C2CC[C@@H]3O)c1 (mixture of isomers) [EM-7128] | 41 | 2 | 120% | 0.75 |  |  |  |  |  |  | 
19 | CCCC(NC(C)C)c1cccc(OCC[C@]23C=CC4=C5CCC(=O)C=C5CCC4C2CC[C@@]3(C)O)c1 (mixture of isomers) [EM-7164] |  | 0 | 27% | 6 |  |  |  |  |  |  | 
20 | CCC(CC)N(C)C(CC)c1cccc(OCC[C@]23CCC4=C5CCC(=O)C=C5CCC4C2CC[C@@H]3O)c1 (mixture of isomers) [EM-6860] | 12 | 0 | 33% | 5.2 |  |  |  |  |  |  | 
21 | CCC(NC1CCCC1)c1cccc(OCC[C@]23CCC4C5CCC(=O)C=C5C[C@@H](C)C4C2CC[C@@H]3O)c1 (mixture of isomers) [EM-6681] | 15 | 19 | 56% | 1.1 |  |  |  |  |  |  | 

Reference: patent publication US9090651B2, “Helix 12 directed pharmaceutical products” (ENDORECHERCHE, INC., priority 2004, dated 2015)
